Columns and labels:
E. coli = assay: Bacterial killing by nasal lavage fluid, luminescence assay; type: cell-based; settings: increasing xylitol concentration (serial dilutions of 300 mM), 4 hours at 30° C.
Protocol: FIG. 4. Effect of modifying ionic strength and xylitol concentration of killing of E. coli by nasal lavage liquid. Nasal lavage liquid was diluted with increasing concentrations of NaCl (bottom X-axis) or xylitol (top X-axis). SEM are smaller than the symbol.
Nasal lavage fluid was collected from normal volunteers. A flexible catheter (18-gauge; Jelco, Tampa, Fla.) was inserted into each nostril and the area flushed four times with 4 ml of sterile water. Cells were removed by centrifugation and the fluid was filtered with a sequential 0.8/0.2 μm Supor Acrodisc PF (GelamnSciences, Ann Arbor, Mich.). To study the effect of xylitol on bacterial killing by endogenous antimicrobial factors, a luminescence assay was used in which E. coli express the genes from Photorhabdus luminescens (Travis, S. M., B. A. D. Conway, J. Zabner, J. J. Smith, N. N. Anderson, P. K. Singh, E. P. Greenberg, and M. J. Welsh. 1999. Activity of Abundant Antimicrobials of the Human Airway. Am. J. Respir. Cell. Mol. Biol. 20:872-879). As previously described, this assay reports bacterial viability. Briefly, bacteria were grown to exponential phase at 30° C., centrifuged, and resuspended in 20 mM potassium phosphate with 2% Lauria-Bertani medium. […] After incubation at 30° C. for 4 hours, luminescence was measured with a luminometer (MLX Luminometer; Dynex Technologies Inc.; Chantilly, Va.). […]

CF epithelia = assay: Bacteria deposited into liquid covering CF epithelia; type: cell-based, human; settings: bacteria grew on untreated or saline-treated epithelia

Q: Which “killing of E. coli by nasal lavage fluid” value (E. coli) does the source give for `OC[C@@H](O)[C@H](O)[C@@H](O)CO` [xylitol] here?
A: not affected

Q: What about the “fate of bacteria deposited into xylitol-containing liquid covering CF epithelia” value (CF epithelia) of the same compound?
A: the bacteria were killed

— US6716819B2, “Use of xylitol to reduce ionic strength and activate endogenous antimicrobials for prevention and treatment of infections” (University of Iowa Research Foundation, priority 2000, dated 2004)
